Several values for one entry are separate records, joined by “and”; a condition that tells them apart may be missing. Equal entries are not always repeated. Entries after “also recorded” stand apart in the source; their conditions may differ.
Key:
[1] = tested on: MUC5AC mRNA in Flag-SPDEF-GFP HBEC cells; experiment: Effect of inhibitors on MUC5AC expression in SPDEF-expressing HBEC cells on air-liquid interface (real-time PCR); format: cell-based, human; conditions: for Inhibitor concentrations at which MUC5AC mRNA was not detected: SPDEF-expressing HBEC cells; for Concentration of dose curve with no detection of MUC5AC mRNA (starred): Flag-SPDEF-GFP HBEC on ALI, inhibitor added upon induction of ALI, RNA after 48 hours, TAQMAN real-time PCR, FIG. 19
Description: Inhibitors were added to media upon induction of ALI and RNA was isolated after 48 hours. (A) p38 MAPK inhibitor (SB239063) dose curve: 0.5, 1, 2.5, 5*, 10* μM. (B) PI3K inhibitor (LY294002) dose curve: 0.5, 1, 2.5, 5*, 10*, 25* μM. (C) mTor inhibitor (Rapamycin) dose curve: 1, 5, 10, 25, 50*, 100* nM. *=No detection of MUC5AC mRNA at these concentrations as determined by TAQMAN® real-time PCR (Applied Biosystems, Foster City, Calif.).
Expression levels of MUC5AC were measured in SPDEF-expressing HBEC cells treated with the p38 MAPK inhibitor SB239063. MUC5AC mRNA was quantitated by QRT-PCR. MUC5AC mRNA was not detected at inhibitor concentrations ≧5 uM.
Expression levels of MUC5AC in SPDEF-expressing HBEC cells treated with rapamycin. MUC5AC mRNA was not detected at inhibitor concentrations ≧50 nM.
Expression levels of MUC5AC in SPDEF-expressing HBEC cells treated with the PI3K inhibitor LY294002. MUC5AC mRNA was not detected at inhibitor concentrations ≧[…].
Using Agr2 as a readout of SPDEF, the effects of p38 MAPK inhibitor SB239063, PI3K inhibitor LY294002, and mTor inhibitor rapamycin in human bronchiolar epithelial cells (HBEC) were investigated. In vitro preparations were maintained at the ALI for 48 hours prior to taking Agr2 measurements.
To test for small molecule inhibitors, HBEC cells expressing lentiviral SPDEF constructs were treated with the p38 MAP kinase inhibitor, SB239063. MUC5AC mRNA was quantitated by QRT-PCR. SPDEF-dependent MUC5AC mRNA was inhibited by the p38 MAP kinase inhibitor (FIG. 22).

[2] = tested on: mouse Agr2 1.6 Kb promoter; conditions: U0126 at 20 μM and 10 μM; 36 hour transfection, aSTEpC; DMSO vehicle control
Description: Thirty-six hour transfection of adult sheep tracheal epithelial cells (aSTEpC) with Agr2-luciferase and expression vectors encoding SPDEF and Foxa3. MAPK inhibitor (U0126) was added at a concentration of 20 μM and 10 μM (DMSO as vehicle control).
Thirty-six hour transfection of adult sheep tracheal epithelial cells (aSTEpCs) with Agr2-luciferase and expression vectors encoding SPDEF and Foxa3 were performed. A MAPK inhibitor (U0126) was added at a concentration of 20 μM and 10 μM (using DMSO as a vehicle control). MAPK inhibitor (U0126) effects on the activity of the mouse Agr2 1.6 Kb promoter were analyzed.
Promoter reporter constructs were co-transfected into primary sheep tracheal epithelial cells (aSTEpC) with CMV-13-Gal plasmid (Clontech, Palo Alto, Calif.) and/or transcription factor expression plasmid using Lipofectamine 2000 (Invitrogen, Carlsbad, Calif.) as previously described^6. Growth media was changed into a differentiation media (MTEC/Nu, mouse tracheal epithelial cells culture media, 2% Nu serum)^39 after transfection. Cell lysates were collected for luciferase activity assay 24 hours after transfection. All transfection assays were performed with primary sheep adult tracheal epithelial cells at passage 3 or 4. Relative promoter activities were normalized to transfection efficiency assayed by β-galactosidase activity and shown as mean±S.D.

[3] = tested on: SPDEF in primary mouse tracheal epithelial cells; experiment: IL-13 induction of SPDEF in primary mouse tracheal epithelial cells at air-liquid interface (immunohistochemistry); format: cell-based; conditions: IL-13 10 ng/ml; ALI culture, 3 and 7 days; FIG. 14
Description: Immunohistochemical staining of SPDEF in primary mouse tracheal epithelial cells cultured under an air-liquid interface (ALI) condition in the presence or absence of IL-13 (10 ng/ml). Expression of SPDEF was detected after 3 days (upper panel) and 7 days (lower panel) after ALI culture. Scale bar: 50 μm.
The air-liquid interface culture of mouse tracheal epithelial cells was performed as previously described^39. The mouse IL-13 used for in vitro culture was purchased from R&D System (Minneapolis, Minn.). The air-liquid interface culture of the HEBCs was similar to procedures previously described^40.

O=c1cc(N2CCOCC2)oc2c(-c3ccccc3)cccc12 [LY294002]
Inhibitor concentrations at which MUC5AC mRNA was not detected ([1]; QRT-PCR, FIGS. 22, 25): ≥ 10 µM

CO[C@H]1C[C@@H]2CC[C@@H](C)[C@@](O)(O2)C(=O)C(=O)N2CCCC[C@H]2C(=O)O[C@H]([C@H](C)C[C@@H]2CC[C@@H](O)[C@H](OC)C2)CC(=O)[C@H](C)/C=C(\C)[C@@H](O)[C@@H](OC)C(=O)[C@H](C)C[C@H](C)/C=C/C=C/C=C/1C [Rapamycin]
Concentration of dose curve with no detection of MUC5AC mRNA (starred) [1]: 50 nM and 100 nM | Inhibitor concentrations at which MUC5AC mRNA was not detected ([1]; FIG. 24): ≥ 0.05 µM

COc1nccc(-c2c(-c3ccc(F)cc3)ncn2C2CCC(O)CC2)n1 (centres unmarked) [SB239063]
Concentration of dose curve with no detection of MUC5AC mRNA (starred) [1]: 5000 nM and 10000 nM | Effect on SPDEF-mediated MUC5AC (Muc5A/C) activation / mRNA ([1]; HBEC in vitro, result in words): highly active; also recorded: inhibited | Inhibitor concentrations at which MUC5AC mRNA was not detected ([1]; QRT-PCR, FIGS. 22, 25): ≥ 5 µM

N#CC(=C(/N)Sc1ccccc1N)/C(C#N)=C(\N)Sc1ccccc1N [U0126]
Effect on activation of SPDEF or Agr2 (Agr2 promoter luciferase activity) [2]: inhibited

B1: IL-13: mouse IL-13 cytokine purchased from R&D System, used for in vitro culture (protein, UniProt P20109 19-131, looked up)
Interleukin-13: APGPVPRSVSLPLTLKELIEELSNITQDQTPLCNGSMVWSVDLAAGGFCVALDSLTNISNCNAIYRTQRILHGLCNRKAPTTVSSLPDTKIEVAHFITKLLSYTKQLFRHGPF
SPDEF expression [3]: dramatically induced
